27 compounds from US20240132491A1, “INDOLINE COMPOUND” (MEDSHINE DISCOVERY INC., priority 2021, published 2024) can be followed below.

In one series the target is PD-1/PD-L1 (Homo sapiens (Human), UniProt Q9NZQ7). Put plainly: NFAT assay: TCR Activitor/PD-L1 CHO cells co-cultured with PD-1/NFAT Reporter-Jurkat cells, Bright-Glo readout. The class given is cell-based. Conditions: PD-L1 CHO / PD-1 NFAT Reporter-Jurkat co-culture, 5 hours. As for the experimental part:
PD1:PD-L1 TR-FRET assay kit, purchased from BPS Biosciences. Bright-Glo reagents purchased from Promega. Nivo multimode microplate reader (PerkinElmer)
TCR Activitor/PD-L1 CHO cells with a growth confluence of 80% were seeded at 35,000 cells per well in a plate and then incubated overnight in a 37° C. cell culture incubator. The compound to be tested was 5-fold diluted with a pipette to the 8th concentration, i.e., from 100 μmol to 1.28 nmol, with a DMSO concentration of 100%. Experiments were set up in duplicate wells. 147 μL of culture medium was added to an intermediate plate, and then 3 μL of gradient diluted compound per well was transferred to the intermediate plate according to the corresponding position, resulting in compound concentrations ranging from 2 μmol to 0.0256 nmol with a DMSO concentration of 2%. The T cell receptor/PD-L1 CHO cell supernatant was discarded, and 50 μL of compound working solution was added to each well, followed by incubation at 37° C. for 30 minutes. After incubation, 50 μL of a PD-1/NFAT Reporter-Jurkat cell suspension at a density of 4×10^5/mL was added to each well, and the plate was incubated at 37° C. for 5 hours. After the incubation, 100 μL of Bright-Glo was added to each well. After mixing, chemiluminescence signals were read using a Nivo the multimode microplate reader.
Raw data was converted into inhibition rate using the equation: (Sample−Min)/(Max−Min)*100%. The IC50 value could then be derived by performing a curve fit using a four-parameter logistic model (obtained using the “log(inhibitor) vs. response—Variable slope” mode in GraphPad Prism). The degree of inhibition of the compound on PD-1/PD-L1 was calculated using the equation (Max−Min)/Min. The higher the multiple, the stronger the inhibition of the PD-1/PD-L1 pathway.

The nature of series [1]: In vivo pharmacokinetics study in mice. Further details: species or system C57BL/6 mice. As to conditions: male, C57BL/6, plasma, mouse. Here is the method: Male C57BL/6 mice were used as test animals, and the drug concentration in plasma at different times after intragastric administration of the test compound was determined by LC/MS/MS method. The pharmacokinetic behavior of the test compounds in mice in vivo was studied to evaluate their pharmacokinetic characteristics.
Test animals: Healthy male C57BL/6 mice. Drug preparation: For the IV group, the vehicle was 5% DMSO+95% (20% hydroxypropyl-β-cyclodextrin); for the PO group, the vehicle was 5% DMSO+95% (20% HP-β-CD). Administration: The dosage of the test compound was 1 mg/kg for the IV group, and 10 mg/kg or 30 mg/kg for the PO group (note: the PO group was fasted overnight before administration).
Experimental operations: After administration, whole blood was collected for a certain period of time and prepared into plasma. The drug concentration was analyzed by the LC-MS/MS method, and the pharmacokinetic parameters were calculated using Phoenix WinNonlin software (Pharsight, USA)

Another series has as its system MC38-hPD-L1 colon cancer. Put plainly: Drug efficacy in MC38-hPD-L1 colon cancer model of B-hPD-L1 humanized mice. The class given is in vivo. As to conditions: compounds 20 to 50 mg/kg p.o. BID 21 days; atezolizumab 5 mg/kg i.p. TIW 10 times. As for the experimental part:
Mouse colon cancer MC38 cells were purchased from Shunran Shanghai Biotech Co., Ltd. Biocytogen (Beijing) Co. Ltd genetically modified the MC38 cells to express human PD-L1, and named it MC38-hPD-L1. These cells were adherent cells, cultured in a 37° C., 5% CO2 incubator. The culture medium composition was Dulbecco's Modified Eagle's Medium (DMEM) containing 10% inactivated fetal bovine serum.
MC38-hPD-L1 cells resuspended in PBS were inoculated subcutaneously into the right flank of B-hPD-L1 mice at a volume of 5×10^5 cells/0.1 mL per mouse. When the average tumor volume reached 150±50 mm^3, suitable mice were selected based on tumor volume and body weight, and were evenly distributed into each group, with 8 mice per group. Drug administration started on the day of grouping. The administration vehicle of the oral administration group was 5% DMSO+95% (20% HP-β-CD in water), while the administration vehicle of the intraperitoneal injection group was 0.9% sodium chloride injection.
Note: a. The administration volume was calculated based on the weight of the experimental animals at […]; b. The dose was 20 mg/kg within 5 days after grouping, and the dose was adjusted to 50 mg/kg starting from the 6th day; c. “p.o.” refers to oral administration, “i.p.” refers to intraperitoneal injection; d. “TIW” refers to three times a week, “BID” refers to twice a day.
Tumor growth inhibition (TGITV): TGITV (%)=[1−(Ti−T0)/(Vi−V0)][…]% (Ti: mean tumor volume of the treatment group on day i of administration, T0: mean tumor volume of the treatment group on day 0 of administration, Vi: mean tumor volume of the vehicle control group on day i of administration, V0: mean tumor volume of the vehicle control group on day 0 of administration).

PD-1/PD-L1, sequence (Q9NZQ7 19-290): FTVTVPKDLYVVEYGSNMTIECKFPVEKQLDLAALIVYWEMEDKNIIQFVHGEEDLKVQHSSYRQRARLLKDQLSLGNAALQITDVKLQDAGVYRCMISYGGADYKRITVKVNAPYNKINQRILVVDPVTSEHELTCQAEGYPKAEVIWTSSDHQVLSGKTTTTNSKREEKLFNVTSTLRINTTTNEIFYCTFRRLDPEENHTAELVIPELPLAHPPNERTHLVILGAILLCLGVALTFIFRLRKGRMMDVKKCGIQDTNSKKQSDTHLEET

A word on the IC50: it is the concentration that gives 50% inhibition. High values mean weaker potency in that assay, low ones greater potency in that assay. The term AUC(0-inf) denotes total exposure, with the tail of the curve extrapolated. A high value points to high exposure. In general, AUC(0-t) refers to exposure summed from dosing to a finite time, without extrapolation to infinity. Low values mean less exposure, high ones more exposure. The term Cmax denotes the highest concentration seen after dosing. In general, half-life refers to the time needed for the level to fall by half in the phase considered. Read a high half-life as slow decline. `COc1nc(-c2cccc(-c3cccc4c3CCN4c3nccc4cc(CN5CC[C@@H](O)C5)cnc34)c2Cl)ccc1CNC[C@@H]1CCC(=O)N1` [Compound 1] yielded an IC50 on PD-1/PD-L1 of 35 nM. Also, in series [1] (po, p.o. 30 mg/kg), the AUC(0-inf) came out at 18.8 µM·h, the AUC(0-t) was 13.7 µM·h, the Cmax worked out at 1460 nM and the half-life is 12 h. The matching figures for `COc1nc(-c2cccc(-c3cccc4c3CCN4c3nccc4cc(CN5CC[C@@H](O)C5)cnc34)c2Cl)cnc1CNC[C@@H]1CCC(=O)N1` [Compound 2]: 16 nM, 23 µM·h, 20.6 µM·h, 1960 nM and 6.9 h. Take `COc1nc(-c2cccc(-c3cccc4c3CCN4c3nc(C(F)F)nc4cc(CN5CC[C@@H](O)C5)cnc34)c2Cl)ccc1CNC[C@@H]1CCC(=O)N1` [Compound 3]: at PD-1/PD-L1, the IC50 was 4.7 nM. Take `COc1nc(-c2cccc(-c3cccc4c3CCN4c3nc(C(F)F)nc4cc(CN5CC[C@@H](O)C5)cnc34)c2Cl)cnc1CNC[C@@H]1CCC(=O)N1` [Compound 4]: the midpoint of inhibition against PD-1/PD-L1, the IC50, lay at 4.5 nM. Moreover, the “Tumor growth inhibition TGITV (%)” value in the series on MC38-hPD-L1 colon cancer turned out to be 86.1%. As for `N#CCOc1nc(-c2cccc(-c3cccc4c3CCN4c3nc(C(F)F)nc4cc(CN5CC[C@@H](O)C5)cnc34)c2Cl)ccc1CNC[C@@H]1CCC(=O)N1` [Compound 7], the IC50 against PD-1/PD-L1 was 3 nM. Same read-out and setting: the figure for `N#CCOc1nc(-c2cccc(-c3cccc4c3CCN4c3nc(C(F)F)nc4cc(CN5CC[C@@H](C(=O)O)C5)cnc34)c2Cl)ccc1CNC[C@@H]1CCC(=O)N1` [Compound 8] is 3.9 nM. At PD-1/PD-L1, `COc1nc(-c2cccc(-c3cccc4c3CCN4c3nc(C(F)F)nc4cc(CN5CC[C@@H](C(=O)O)C5)cnc34)c2Cl)ccc1CNC[C@@H]1CCC(=O)N1` [Compound 9] showed an IC50 of 4.4 nM. Regarding `COc1nc(-c2cccc(-c3cccc4c3CCN4c3nc(C(F)F)nc4cc(CN5CC[C@@H](O)C5)cnc34)c2Cl)cnc1CN1CCC(C)(C(=O)O)C1` (stereo partly drawn) [Compound 11], on PD-1/PD-L1, the midpoint of inhibition, the IC50, lay at 24.6 nM. Still for that read-out and setting: the figure for `COc1nc(-c2cccc(-c3cccc4c3CCN4c3nc(C(F)F)nc4cc(CN5CC[C@@H](O)C5)cnc34)c2Cl)cnc1CN1CC[C@@H](O)C1` [Compound 12] is 10.9 nM. In the case of `COc1nc(-c2cccc(-c3cccc4c3CCN4c3nc(C(F)F)nc4cc(CN5CC[C@@H](O)C5)cnc34)c2Cl)cnc1CNC[C@H](C(=O)O)C(C)C` [Compound 13], the IC50 at PD-1/PD-L1 stood at 19 nM. The same measure, in the same setting: with `COc1nc(-c2cccc(-c3cccc4c3CCN4c3nc(C(F)F)nc4cc(CN5CC[C@@H](O)C5)cnc34)c2Cl)cnc1CNCC(C)(C)C(=O)O` [Compound 14] the figure was 10.7 nM; with `COc1nc(-c2cccc(-c3cccc4c3CCN4c3nc(C(F)F)nc4cc(CN5CC[C@@H](O)C5)cnc34)c2Cl)cnc1CN1CCC[C@H]1CC(=O)O` [Compound 15], 35.1 nM. Still for that read-out and setting: with `COc1nc(-c2cccc(-c3cccc4c3CCN4c3nc(C(F)F)nc4cc(CN5CC[C@@H](O)C5)cnc34)c2Cl)ccc1CN1CCC(C)(C(=O)O)C1` (stereo partly drawn) [Compound 16] the figure was 9.2 nM; with `N#CCOc1nc(-c2cccc(-c3cccc4c3CCN4c3nc(C(F)F)nc4cc(CN5CC[C@@H](O)C5)cnc34)c2Cl)ccc1CN1CC[C@@H](C(=O)O)C1` [Compound 17], 7.5 nM; with `COc1nc(-c2cccc(-c3cccc4c3CCN4c3nc(C(F)F)nc4cc(CN5CCC(C)(O)C5)cnc34)c2Cl)cnc1CNC[C@@H]1CCC(=O)N1` (stereo partly drawn) [Compound 18], 3.5 nM.

In the case of `COc1nc(-c2cccc(-c3cccc4c3CCN4c3nc(C(F)F)nc4cc(CN5CC[C@@H](O)C5)cnc34)c2C)cnc1CN1CC[C@@H](C(=O)O)C1` [Compound 19], the IC50 against PD-1/PD-L1 was determined as 30.7 nM. On the same count and under the same terms, with `COc1nc(-c2cccc(-c3cccc4c3CCN4c3nc(C(F)F)nc4cc(CN5CC[C@@H](O)C5)cnc34)c2C)cnc1CN1CCC(C)(C(=O)O)C1` (stereo partly drawn) [Compound 20] the figure was 42.7 nM; with `COc1nc(-c2cccc(-c3cccc4c3CCN4c3nc(C(F)F)nc4cc(CN5C[C@@H](O)[C@H](O)C5)cnc34)c2Cl)cnc1CNC[C@@H]1COC(=O)N1` [Compound 22], 22.6 nM; with `COc1nc(-c2cccc(-c3cccc4c3CCN4c3nc(C(F)F)nc4cc(CN5CC[C@@H](O)C5)cnc34)c2C)ccc1CN1CC[C@@](C)(C(=O)O)C1` [Compound 23], 32.6 nM. In turn, `COc1nc(-c2cccc(-c3cccc4c3CCN4c3nc(C(F)F)nc4cc(CN5CC[C@@H](O)C5)cnc34)c2C)ccc1CN1CC[C@](C)(C(=O)O)C1` [Compound 24] yielded a concentration for half-maximal inhibition (IC50) against PD-1/PD-L1 of 32.6 nM. A word on the clearance: it is the volume of plasma or blood freed of the substance per unit of time. A low value points to inefficient removal. Broadly, the bioavailability is the share of a dose that reaches the circulation, judged against a reference dose that is usually intravenous. Higher therefore signals good availability. By Tmax is commonly meant the time at which the peak concentration occurs. In turn, `Cc1c(-c2nc3cc(CN4CC[C@@H](C(=O)O)C4)cc(C#N)c3o2)cccc1-c1cccc2c1CCN2c1nc(C(F)F)nc2cc(CN3CC[C@@H](O)C3)cnc12` [Compound 27] had an IC50 against PD-1/PD-L1 of 6.71 nM. In series [1] (iv, i.v. 1 mg/kg), this compound gave an AUC(0-inf) of 2.1 µM·h, an AUC(0-t) of 1.65 µM·h, a clearance of 10.6 mL/min/kg and a half-life of 12.5 h. In addition, the Vd in series [1] (iv, i.v. 1 mg/kg, read-out: Vdss) was found to be 8.97 L/kg. In series [1] (oral, p.o. 10 mg/kg vs i.v. 1 mg/kg), this compound displayed a bioavailability of 46.3%. Besides, in series [1] (po, p.o. 10 mg/kg), the AUC(0-inf) stood at 9.73 µM·h, the AUC(0-t) amounted to 8.91 µM·h, the peak level (Cmax) was 680 nM and the Tmax was found to be 3.33 h. Besides, the half-life in series [1] (po, p.o. 10 mg/kg) was 6.23 h. The “Tumor growth inhibition TGITV (%)” value in the series on MC38-hPD-L1 colon cancer is 86.1%. `N#Cc1cc(CN2CC[C@@H](C(=O)O)C2)cc2nc(-c3cccc(-c4cccc5c4CCN5c4nc(C(F)F)nc5cc(CN6CC[C@@H](O)C6)cnc45)c3Cl)oc12` [Compound 28] came in with an IC50 against PD-1/PD-L1 of 4.67 nM. Same read-out and setting: with `Cc1c(-c2nc3cc(CN4CC[C@@H](C(=O)O)C4)cnc3o2)cccc1-c1cccc2c1CCN2c1nc(C(F)F)nc2cc(CN3CC[C@@H](O)C3)cnc12` [Compound 29] the figure was 6.03 nM. On the same count and under the same terms, with `Cc1c(-c2nc3cc(CN4CC[C@@](C)(C(=O)O)C4)cnc3o2)cccc1-c1cccc2c1CCN2c1nc(C(F)F)nc2cc(CN3CC[C@@H](O)C3)cnc12` [Compound 30] the figure was 14.5 nM; with `Cc1c(-c2nc3cc(CN4CC[C@@H](O)C4)cc(C#N)c3o2)cccc1-c1cccc2c1CCN2c1nc(C(F)F)nc2cc(CN3CC[C@@H](C(=O)O)C3)cnc12` [Compound 32], 8.98 nM; with `Cc1c(-c2nc3cc(CN4CC[C@@](C)(O)C4)cc(C#N)c3o2)cccc1-c1cccc2c1CCN2c1nc(C(F)F)nc2cc(CN3CC[C@@H](C(=O)O)C3)cnc12` [Compound 33], 13.6 nM. On to “Atezolizumab: PD-L1 monoclonal antibody, approved for urothelial carcinoma and non-small cell lung cancer [reference compound]”, for which the “Tumor growth inhibition TGITV (%)” value with MC38-hPD-L1 colon cancer amounted to 88.4%.
